According to ChEMBL document CHEMBL4507276 (2021):

Legend:
[1] = target: Cyclin-dependent kinase 11B (Homo sapiens) (UniProt P21127); settings: Compound concentration 1000.0 nM
[2] = target: Macrophage colony-stimulating factor 1 receptor (Homo sapiens) (UniProt P07333); settings: Compound concentration 1000.0 nM
[3] = target: Serine/threonine-protein kinase DCLK3 (Homo sapiens) (UniProt Q9C098); settings: Compound concentration 1000.0 nM
[4] = test system: Epidermal growth factor receptor (Homo sapiens), P00533 [UNDEFINED MUTATION]; settings: Compound concentration 1000.0 nM
[5] = target: T1, Ephrin type-B receptor 1 (Homo sapiens) (UniProt P54762); settings: Compound concentration 1000.0 nM
T1 sequence (whole entry): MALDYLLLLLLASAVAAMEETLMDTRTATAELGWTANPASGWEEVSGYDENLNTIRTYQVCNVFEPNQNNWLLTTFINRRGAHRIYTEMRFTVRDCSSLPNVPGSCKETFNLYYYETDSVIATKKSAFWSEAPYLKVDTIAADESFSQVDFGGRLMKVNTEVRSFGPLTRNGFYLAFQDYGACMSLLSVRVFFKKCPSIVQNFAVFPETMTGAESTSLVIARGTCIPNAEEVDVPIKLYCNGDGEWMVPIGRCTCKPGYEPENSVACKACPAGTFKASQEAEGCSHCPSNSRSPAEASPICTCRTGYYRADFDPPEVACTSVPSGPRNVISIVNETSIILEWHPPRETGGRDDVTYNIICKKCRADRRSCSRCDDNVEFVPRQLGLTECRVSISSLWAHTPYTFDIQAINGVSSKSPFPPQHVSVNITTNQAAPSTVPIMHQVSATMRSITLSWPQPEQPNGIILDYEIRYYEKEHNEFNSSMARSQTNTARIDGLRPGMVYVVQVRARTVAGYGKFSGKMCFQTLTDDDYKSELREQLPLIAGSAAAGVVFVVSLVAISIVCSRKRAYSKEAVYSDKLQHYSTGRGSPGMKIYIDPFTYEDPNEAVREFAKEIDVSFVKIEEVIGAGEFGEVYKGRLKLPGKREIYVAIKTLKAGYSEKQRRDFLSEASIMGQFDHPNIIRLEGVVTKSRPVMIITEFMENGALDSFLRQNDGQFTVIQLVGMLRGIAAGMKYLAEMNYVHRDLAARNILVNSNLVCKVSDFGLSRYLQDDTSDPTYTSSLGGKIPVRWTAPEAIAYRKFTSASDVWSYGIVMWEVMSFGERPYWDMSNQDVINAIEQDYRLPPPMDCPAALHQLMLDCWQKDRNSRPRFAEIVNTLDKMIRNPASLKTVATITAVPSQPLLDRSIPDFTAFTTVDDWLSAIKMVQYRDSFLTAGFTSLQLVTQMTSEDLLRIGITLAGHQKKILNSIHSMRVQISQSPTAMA

[6] = target: Serine/threonine-protein kinase/endoribonuclease IRE1 (Homo sapiens) (UniProt O75460); settings: Compound concentration 1000.0 nM
Chain of Serine/threonine-protein kinase/endoribonuclease IRE1 (Homo sapiens) (O75460 19-977 limits assumed): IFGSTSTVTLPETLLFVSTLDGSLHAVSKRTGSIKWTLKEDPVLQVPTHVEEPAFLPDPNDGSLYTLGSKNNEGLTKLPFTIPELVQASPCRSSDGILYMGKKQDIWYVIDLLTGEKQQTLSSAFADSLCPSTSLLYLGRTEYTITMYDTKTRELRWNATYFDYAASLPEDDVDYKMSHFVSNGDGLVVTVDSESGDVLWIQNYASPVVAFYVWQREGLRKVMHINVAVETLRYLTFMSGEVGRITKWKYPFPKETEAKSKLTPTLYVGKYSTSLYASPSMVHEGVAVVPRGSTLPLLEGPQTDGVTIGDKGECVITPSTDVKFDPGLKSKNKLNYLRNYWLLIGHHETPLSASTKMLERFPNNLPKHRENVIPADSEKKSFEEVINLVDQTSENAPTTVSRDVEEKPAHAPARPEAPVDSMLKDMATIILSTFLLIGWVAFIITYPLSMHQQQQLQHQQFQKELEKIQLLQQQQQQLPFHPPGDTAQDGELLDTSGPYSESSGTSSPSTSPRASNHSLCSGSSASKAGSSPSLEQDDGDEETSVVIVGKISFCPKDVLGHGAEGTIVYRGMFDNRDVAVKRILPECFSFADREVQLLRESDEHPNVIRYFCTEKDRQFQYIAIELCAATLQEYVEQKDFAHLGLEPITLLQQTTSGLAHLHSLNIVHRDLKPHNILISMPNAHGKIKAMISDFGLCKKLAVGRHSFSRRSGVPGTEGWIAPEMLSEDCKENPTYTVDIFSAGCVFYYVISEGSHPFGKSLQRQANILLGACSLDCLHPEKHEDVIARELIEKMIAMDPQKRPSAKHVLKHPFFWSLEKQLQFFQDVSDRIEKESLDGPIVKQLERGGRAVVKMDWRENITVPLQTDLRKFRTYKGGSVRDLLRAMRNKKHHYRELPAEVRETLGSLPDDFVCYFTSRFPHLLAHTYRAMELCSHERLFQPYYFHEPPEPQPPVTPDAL

[7] = test system: Mast/stem cell growth factor receptor Kit (Homo sapiens), P10721 [L576P]; settings: Compound concentration 1000.0 nM
Chain of Mast/stem cell growth factor receptor Kit (Homo sapiens), P10721 [L576P] (P10721 whole entry L576P, canonical isoform): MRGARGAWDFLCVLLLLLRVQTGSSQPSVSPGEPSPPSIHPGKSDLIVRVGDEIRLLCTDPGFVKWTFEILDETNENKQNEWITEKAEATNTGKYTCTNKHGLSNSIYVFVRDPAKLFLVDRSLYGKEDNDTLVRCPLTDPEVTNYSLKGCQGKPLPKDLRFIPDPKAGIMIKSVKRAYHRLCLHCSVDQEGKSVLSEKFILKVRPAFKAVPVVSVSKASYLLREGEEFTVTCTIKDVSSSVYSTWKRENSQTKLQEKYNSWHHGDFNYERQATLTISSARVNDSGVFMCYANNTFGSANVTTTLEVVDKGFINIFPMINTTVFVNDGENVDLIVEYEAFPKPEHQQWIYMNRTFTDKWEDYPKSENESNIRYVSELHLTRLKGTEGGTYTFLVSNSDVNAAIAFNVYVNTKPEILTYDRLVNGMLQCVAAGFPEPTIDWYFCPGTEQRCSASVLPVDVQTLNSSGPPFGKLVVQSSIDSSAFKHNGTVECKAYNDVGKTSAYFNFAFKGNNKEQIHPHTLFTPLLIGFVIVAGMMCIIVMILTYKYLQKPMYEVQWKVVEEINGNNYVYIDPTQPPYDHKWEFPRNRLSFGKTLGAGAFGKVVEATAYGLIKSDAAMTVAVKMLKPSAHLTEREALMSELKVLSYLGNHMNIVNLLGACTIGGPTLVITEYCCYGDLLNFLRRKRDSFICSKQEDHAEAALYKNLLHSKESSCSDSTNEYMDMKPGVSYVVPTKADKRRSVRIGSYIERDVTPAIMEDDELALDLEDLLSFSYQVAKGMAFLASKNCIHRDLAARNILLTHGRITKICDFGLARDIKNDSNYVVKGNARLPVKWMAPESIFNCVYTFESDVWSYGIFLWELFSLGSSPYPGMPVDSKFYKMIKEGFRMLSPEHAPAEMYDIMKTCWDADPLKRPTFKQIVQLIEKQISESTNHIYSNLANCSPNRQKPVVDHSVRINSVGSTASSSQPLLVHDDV

[8] = test system: Phosphatidylinositol 4,5-bisphosphate 3-kinase catalytic subunit alpha isoform (Homo sapiens), P42336 [I800L]; settings: Compound concentration 1000.0 nM
Chain of Phosphatidylinositol 4,5-bisphosphate 3-kinase catalytic subunit alpha isoform (Homo sapiens), P42336 [I800L] (P42336 whole entry I800L, canonical isoform): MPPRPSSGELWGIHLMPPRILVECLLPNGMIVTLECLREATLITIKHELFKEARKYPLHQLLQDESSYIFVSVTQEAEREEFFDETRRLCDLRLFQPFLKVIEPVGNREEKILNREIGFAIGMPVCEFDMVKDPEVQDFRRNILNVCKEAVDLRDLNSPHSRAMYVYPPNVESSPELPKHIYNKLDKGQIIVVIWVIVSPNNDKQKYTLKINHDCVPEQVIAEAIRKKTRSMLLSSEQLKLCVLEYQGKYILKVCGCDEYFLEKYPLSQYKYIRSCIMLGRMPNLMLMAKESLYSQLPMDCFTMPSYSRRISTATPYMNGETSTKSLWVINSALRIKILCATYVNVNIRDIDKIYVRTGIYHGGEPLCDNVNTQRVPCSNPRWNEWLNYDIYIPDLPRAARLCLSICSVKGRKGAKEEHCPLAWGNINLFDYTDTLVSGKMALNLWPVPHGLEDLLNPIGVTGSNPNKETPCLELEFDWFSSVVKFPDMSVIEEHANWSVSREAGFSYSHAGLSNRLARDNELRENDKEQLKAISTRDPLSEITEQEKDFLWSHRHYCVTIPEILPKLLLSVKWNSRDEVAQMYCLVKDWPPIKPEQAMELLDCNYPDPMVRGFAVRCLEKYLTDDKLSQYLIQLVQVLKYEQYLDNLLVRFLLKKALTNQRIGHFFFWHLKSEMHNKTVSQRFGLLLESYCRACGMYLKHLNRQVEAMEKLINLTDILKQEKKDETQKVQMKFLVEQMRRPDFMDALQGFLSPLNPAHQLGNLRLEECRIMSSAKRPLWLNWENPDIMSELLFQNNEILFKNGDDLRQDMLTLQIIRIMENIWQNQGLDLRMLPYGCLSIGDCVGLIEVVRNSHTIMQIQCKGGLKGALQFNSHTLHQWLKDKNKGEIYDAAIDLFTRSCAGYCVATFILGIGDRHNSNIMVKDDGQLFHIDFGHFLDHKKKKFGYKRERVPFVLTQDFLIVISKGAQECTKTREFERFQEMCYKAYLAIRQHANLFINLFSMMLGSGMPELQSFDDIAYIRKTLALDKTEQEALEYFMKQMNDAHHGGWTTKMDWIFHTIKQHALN

[9] = target: T2, Protein kinase C iota type (Homo sapiens) (UniProt P41743); settings: Compound concentration 1000.0 nM
T2 sequence (whole entry): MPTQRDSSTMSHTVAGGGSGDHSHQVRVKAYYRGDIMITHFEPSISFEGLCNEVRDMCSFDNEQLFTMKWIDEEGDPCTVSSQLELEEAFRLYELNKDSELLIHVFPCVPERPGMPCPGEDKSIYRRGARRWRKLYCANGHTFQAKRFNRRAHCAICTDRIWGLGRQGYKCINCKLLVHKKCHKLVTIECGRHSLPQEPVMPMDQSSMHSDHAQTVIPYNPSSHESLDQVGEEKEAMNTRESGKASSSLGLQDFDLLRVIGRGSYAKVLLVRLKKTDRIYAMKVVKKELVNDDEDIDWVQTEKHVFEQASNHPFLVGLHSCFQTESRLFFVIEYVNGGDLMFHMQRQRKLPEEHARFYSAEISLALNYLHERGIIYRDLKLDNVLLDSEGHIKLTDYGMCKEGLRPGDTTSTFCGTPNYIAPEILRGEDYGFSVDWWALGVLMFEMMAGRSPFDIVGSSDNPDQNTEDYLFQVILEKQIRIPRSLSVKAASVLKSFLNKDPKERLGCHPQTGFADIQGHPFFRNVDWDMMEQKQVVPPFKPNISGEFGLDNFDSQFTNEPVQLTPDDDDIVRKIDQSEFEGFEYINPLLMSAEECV

[10] = target: Serine/threonine-protein kinase RIO2 (Homo sapiens) (UniProt Q9BVS4); settings: Compound concentration 1000.0 nM
[11] = target: Receptor-interacting serine/threonine-protein kinase 2 (Homo sapiens) (UniProt O43353); settings: Compound concentration 1000.0 nM
[12] = target: Serine/threonine-protein kinase SBK1 (Homo sapiens) (UniProt Q52WX2); settings: Compound concentration 1000.0 nM
Chain of Serine/threonine-protein kinase SBK1 (Homo sapiens) (Q52WX2 whole entry): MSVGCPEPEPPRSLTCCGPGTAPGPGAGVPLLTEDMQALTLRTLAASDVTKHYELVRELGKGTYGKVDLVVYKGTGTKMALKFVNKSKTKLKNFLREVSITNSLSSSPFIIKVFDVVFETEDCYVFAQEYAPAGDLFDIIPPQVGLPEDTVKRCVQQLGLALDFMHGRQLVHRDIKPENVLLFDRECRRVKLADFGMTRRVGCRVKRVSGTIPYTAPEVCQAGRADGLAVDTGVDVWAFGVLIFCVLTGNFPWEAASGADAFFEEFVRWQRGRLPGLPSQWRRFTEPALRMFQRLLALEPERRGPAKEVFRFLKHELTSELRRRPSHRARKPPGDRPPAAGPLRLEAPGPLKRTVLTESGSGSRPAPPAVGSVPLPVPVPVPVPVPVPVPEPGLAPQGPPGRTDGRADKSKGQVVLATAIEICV

[13] = target: T3, Mitogen-activated protein kinase kinase kinase 7 (Homo sapiens) (UniProt O43318); settings: Compound concentration 1000.0 nM
T3 sequence (whole entry): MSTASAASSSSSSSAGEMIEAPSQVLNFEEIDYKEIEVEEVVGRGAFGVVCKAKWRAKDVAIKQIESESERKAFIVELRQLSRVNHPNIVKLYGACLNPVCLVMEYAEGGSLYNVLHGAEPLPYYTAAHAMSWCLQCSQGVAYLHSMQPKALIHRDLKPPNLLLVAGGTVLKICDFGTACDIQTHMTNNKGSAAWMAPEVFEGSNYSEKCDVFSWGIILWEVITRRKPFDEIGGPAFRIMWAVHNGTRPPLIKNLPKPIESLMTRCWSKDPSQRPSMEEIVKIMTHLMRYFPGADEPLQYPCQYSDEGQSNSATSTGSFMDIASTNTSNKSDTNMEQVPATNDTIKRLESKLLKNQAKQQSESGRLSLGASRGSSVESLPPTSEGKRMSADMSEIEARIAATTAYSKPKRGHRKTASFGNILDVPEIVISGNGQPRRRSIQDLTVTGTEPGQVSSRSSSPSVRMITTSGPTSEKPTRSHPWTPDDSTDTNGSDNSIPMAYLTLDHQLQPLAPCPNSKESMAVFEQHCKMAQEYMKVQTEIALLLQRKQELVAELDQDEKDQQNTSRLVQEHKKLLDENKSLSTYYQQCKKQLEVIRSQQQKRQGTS

[14] = target: Mu-type opioid receptor (Homo sapiens) (UniProt P35372); settings: Compound concentration 10.0 uM
Chain of Mu-type opioid receptor (Homo sapiens) (P35372 whole entry): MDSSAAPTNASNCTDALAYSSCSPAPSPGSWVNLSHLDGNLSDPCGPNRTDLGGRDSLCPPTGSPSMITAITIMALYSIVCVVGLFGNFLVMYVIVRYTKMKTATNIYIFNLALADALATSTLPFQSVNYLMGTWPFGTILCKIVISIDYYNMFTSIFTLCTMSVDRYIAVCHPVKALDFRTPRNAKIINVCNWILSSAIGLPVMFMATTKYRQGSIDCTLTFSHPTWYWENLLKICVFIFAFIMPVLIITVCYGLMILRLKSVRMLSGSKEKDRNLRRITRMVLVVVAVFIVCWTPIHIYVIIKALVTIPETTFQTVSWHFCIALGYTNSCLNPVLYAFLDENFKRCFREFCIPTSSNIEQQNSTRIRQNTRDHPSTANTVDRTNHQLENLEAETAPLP

[15] = target: Histamine H2 receptor (Homo sapiens) (UniProt P25021); settings: Compound concentration 10.0 uM
Chain of Histamine H2 receptor (Homo sapiens) (P25021 whole entry): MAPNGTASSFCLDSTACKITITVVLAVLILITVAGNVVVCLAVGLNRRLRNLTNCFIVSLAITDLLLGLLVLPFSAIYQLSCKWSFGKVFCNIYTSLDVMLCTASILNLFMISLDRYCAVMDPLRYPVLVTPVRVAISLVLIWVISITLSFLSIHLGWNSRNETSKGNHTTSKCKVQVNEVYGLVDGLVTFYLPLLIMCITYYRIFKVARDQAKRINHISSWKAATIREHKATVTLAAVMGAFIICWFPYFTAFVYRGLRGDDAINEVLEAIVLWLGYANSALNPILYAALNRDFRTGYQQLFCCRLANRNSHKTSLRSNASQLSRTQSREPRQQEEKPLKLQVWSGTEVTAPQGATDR

Chain of Serine/threonine-protein kinase DCLK3 (Homo sapiens) (Q9C098 whole entry): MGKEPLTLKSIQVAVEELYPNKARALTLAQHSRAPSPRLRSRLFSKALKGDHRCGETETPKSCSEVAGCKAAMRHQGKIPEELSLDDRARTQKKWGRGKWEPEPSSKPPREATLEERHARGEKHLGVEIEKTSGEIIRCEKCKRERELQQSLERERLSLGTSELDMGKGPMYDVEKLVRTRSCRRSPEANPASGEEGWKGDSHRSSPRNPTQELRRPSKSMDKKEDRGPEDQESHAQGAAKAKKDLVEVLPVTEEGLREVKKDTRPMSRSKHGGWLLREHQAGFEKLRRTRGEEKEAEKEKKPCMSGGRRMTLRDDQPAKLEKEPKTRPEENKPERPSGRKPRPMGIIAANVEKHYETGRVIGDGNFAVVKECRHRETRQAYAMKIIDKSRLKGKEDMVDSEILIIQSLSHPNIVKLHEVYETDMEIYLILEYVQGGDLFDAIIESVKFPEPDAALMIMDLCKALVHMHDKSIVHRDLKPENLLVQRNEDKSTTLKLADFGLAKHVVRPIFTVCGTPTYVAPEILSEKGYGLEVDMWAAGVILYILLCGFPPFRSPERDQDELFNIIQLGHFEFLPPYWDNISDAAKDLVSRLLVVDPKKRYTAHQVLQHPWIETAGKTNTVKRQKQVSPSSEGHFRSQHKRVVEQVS

CN(C)C(=O)Cn1cc(-c2nc(C3(c4ccc(-c5cnc(N)nc5)cc4)CC3)no2)cn1 [BI 0153]
inactive: residual activity [1] 96% | residual activity [2] 84% | residual activity [3] 100% | residual activity [4] 100% | residual activity [5] 100% | residual activity [6] 69% | residual activity [7] 84% | residual activity [8] 91% | residual activity [9] 100% | residual activity [10] 76% | residual activity [11] 100% | residual activity [12] 83% | residual activity [13] 72% | inhibition [14] 12.6% | inhibition [15] -9.18%

CN(C)C(=O)Cn1cc(-c2nc([C@@](C)(c3ccc(-c4cnc(N)nc4)cc3)C3CC3)no2)cn1 [BI 665915]
inactive: residual activity [1] 79% | residual activity [2] 96% | residual activity [3] 96% | residual activity [4] 100% | residual activity [5] 100% | residual activity [6] 86% | residual activity [7] 63% | residual activity [8] 54% | residual activity [9] 93% | residual activity [10] 87% | residual activity [11] 87% | residual activity [12] 87% | residual activity [13] 50% | inhibition [14] 4.55% | inhibition [15] -8.4%
